Assay: Case report: with autism given ibuprofen for children during a 7-day fever
Assay type: in vivo, human
Details: one child, ibuprofen about 30-40 mg/kg throughout 7 days
From the text: Subject […] was born […], and developed normally until reaching […] (the “regression time”). […] The […] developed autistic symptoms after the regression time, such as ceasing to respond to their name and losing the skills they had attained so far as their neurological health progressively deteriorated. At or about the same time of the regression time, the […] also developed other medical problems including Vitiligo. After an evaluation, a therapist from the Early Child Intervention Program advised the parents that the child had red flags for autism. Following a viral and bacterial infection […], the […]'s autistic symptoms became severe. The […] was officially diagnosed with autism by a developmental pediatrician, and qualified for the Preschool Program for Children With Disabilities (PPCD). While in the PPCD program, the […] was evaluated by a speech therapist who diagnosed them with severe speech impairments. A video of the child showing severe autistic symptoms is available at http://www.youtube.com/watch?v=GbEeNJgaIQQ. When the child turned […] they developed another viral infection and developed a high fever that lasted over 7 days. […] They were more aware, calm and was saying more words. […] Gastrointestinal problems caused by the ibuprofen soon surfaced, however. […]

CC(C)Cc1ccc(C(C)C(=O)O)cc1 (centres unmarked) [ibuprofen]
autistic symptoms while under ibuprofen (autism, viral infection with fever): autistic symptoms decreased | gastrointestinal side effects of ibuprofen (little food intake): gastrointestinal lesions and ulcers caused by the ibuprofen
